Results reported in the METLIN SMRT retention time set (Domingo-Almenara et al. 2019).

Assay: gradient 5% acetonitrile 3 min, to 50% in 2 min, to 85% in 15 min, held 3 min, 100 µL/min
Details: column: Zorbax Extend-C18 2.1 x 50 mm; eluents: water / acetonitrile, 0.1% formic acid
Outline: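 Data were gathered over 3 months by HPLC coupled to a quadrupole time-of-flight mass spectrometer, operated in positive and negative ionization mode. Mixtures of ~100 pure standards ran on a Zorbax Extend-C18 column (2.1 × 50 mm, 1.8 μm) at 100 μL/min, with water and acetonitrile each containing 0.1% formic acid and dead and dwell volumes of 40 μL and 900 μL. Retention time was read from adduct peaks picked by computer and checked manually.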

Row | RP-LC retention time [s] | SMILES
1 | 726 | CN1c2ccc(F)cc2C(=O)NC12CCN(C(=O)c1ccccc1)CC2
2 | 646 | CC(C)Cn1c(=O)c(N2CCN(C(=O)c3nccc4ccccc34)CC2)nc2ccncc21
3 | 805 | Cc1ccc(C(=O)N2CCC3(CC2)NC(=O)c2cc(C)ccc2N3C)cc1
4 | 712 | O=C(c1cc2ccccc2o1)N1CCC(CNS(=O)(=O)C2CC2)CC1
5 | 849 | CCc1ccc(C2=C(C)C(N3CCCN(C(=O)NC(C)C)CC3)=NS2(=O)=O)cc1
6 | 630 | CCN1CCC2(CC1)OC(=O)C(C)=C2C(=O)NCC(C)c1ccccc1 (stereo not drawn)
7 | 917 | Cc1nc(CCNC(=O)C2CCN(S(=O)(=O)c3ccc(CC(C)C)cc3)CC2)cs1
8 | 791 | CC(C)c1ccc(S(=O)(=O)N2CCC3(CC2)NCCN=C3NCc2ccccc2)cc1
9 | 828 | O=C(Nc1cnc(N2CCOCC2)nc1)c1cccc(Br)c1
10 | 665 | CCOC(=O)C1=C(CN2CCC(C(=O)OCC)CC2)NC(=O)NC1c1ccc(C)cc1 (stereo not drawn)
11 | 964 | CCN(Cc1ccccc1)C(=O)CSc1cc(N2CCN(c3ccc(OC)cc3)CC2)ncn1
12 | 806 | CC(=O)N1c2ccc(S(=O)(=O)N3CCCC3)cc2CC1C(=O)NCCC(C)C (stereo not drawn)
13 | 758 | CCCN1CCn2cc(S(=O)(=O)Nc3cccc(C)c3C)cc2C1=O
14 | 668 | CCNc1nc(C)cc(N2CCN(C(=O)Nc3cc(C)ccc3C)CC2)n1
15 | 882 | O=C(CCC1CCN(S(=O)(=O)c2ccccc2)CC1)NCc1ccc(F)cc1
16 | 600 | C=C(C)Cn1c(CNC(=O)c2ccccc2)nc2ccccc21
17 | 598 | CN(C)C(=O)c1cc2c(s1)CCC(C(=O)NC1CCN(Cc3ccccc3)CC1)C2 (stereo not drawn)

Row | RP-LC retention time [s] | SMILES
18 | 812 | CC(NC(=O)CCc1ccc2[nH]ccc2c1)c1ccccc1 (stereo not drawn)
19 | 1120 | CCCn1cc(C(=O)Nc2cccc(C)c2)c(S(=O)(=O)N2CCSCC2)n1
20 | 700 | Cn1cc(CCNC(=O)Cc2ccccc2Cl)c2cccnc21
21 | 741 | O=C(c1ccco1)N1CCN(c2ncnc3c2cnn3Cc2ccccc2)CC1
22 | 652 | CCOC(=O)c1cnc(N2CCN(c3cccc(Cl)c3)CC2)c2ccccc12
23 | 872 | O=C(Nc1ccccc1)N1CCC(Oc2ccccc2)C1 (stereo not drawn)
24 | 890 | O=C(Nc1ccccc1C(F)(F)F)c1csc(-c2ccc(N3CCCC3)nc2)n1
25 | 858 | Cc1onc(-c2ccccc2Cl)c1C(=O)N1CCC2(CC1)CC(=O)c1ccccc1O2
26 | 743 | CCOc1cccc(CNC(=O)C2CCc3nc(N4CCOCC4)ncc3C2)c1 (stereo not drawn)
27 | 1200 | CCOC(=O)c1ccc(NC(=O)Cn2nc(N3CCCC(C)C3)c3ccccc3c2=O)cc1 (stereo not drawn)
28 | 736 | CCC(C)NC(=O)C1(c2ccc(NS(C)(=O)=O)cc2)CCCCC1 (stereo not drawn)
29 | 909 | Cn1cc(C(=O)NCc2ccc(Cl)cc2)c(S(=O)(=O)N2CCSCC2)n1
30 | 585 | CN1CCN(CCNC(=O)c2cc(-c3cccnc3)nc3ccc(Br)cc23)CC1
31 | 605 | O=C(NCc1ccccc1)C(=O)c1c[nH]c2ccccc12
32 | 735 | CCC(C(=O)NC1CC1)n1nc(C)c2c(C)n(-c3ccccc3)nc2c1=O (stereo not drawn)
33 | 724 | CCN1CCN(c2cc(C(=O)O)c3cc(NS(=O)(=O)c4ccc(C(C)C)cc4)ccc3n2)CC1
34 | 828 | COc1ccc(CCNC(=O)C2CCN(S(C)(=O)=O)c3ccccc3O2)cc1 (stereo not drawn)

The remaining lines, values behind:

Row | SMILES | RP-LC retention time [s]
35 | O=C(Cn1nc(S(=O)(=O)c2cccc(F)c2)ccc1=O)N1CCN(c2ccc(F)cc2)CC1 | 882
36 | CC(C)CC(=O)Nc1nnc(SCc2nnc(-c3ccc4c(c3)OCO4)o2)s1 | 854
37 | COc1cccc(C2CC(c3ccc(F)cc3)=NC3(CCN(C(C)=O)CC3)N2)c1O (stereo not drawn) | 656
38 | O=C([C@@H]1C[C@H](F)CN1S(=O)(=O)c1cccc(F)c1)N1CCc2ccccc2C1 | 920
39 | Cn1nccc1-c1cccc(-c2noc(-c3ccc(F)cc3)n2)c1 | 915
40 | O=C(Cc1nnc2c(-c3nc(C4CC4)no3)cccn12)N1CCSCC1 | 653
41 | CC1CCN(C2=NCCN2C(=O)c2c(F)cccc2F)CC1 | 660
42 | Cc1cc(C)n(C(=O)c2ccc(Cl)cc2[N+](=O)[O-])n1 | 927
43 | O=C(CC1CCCC1)N1CCCC(c2nc(-c3ccncc3)n[nH]2)C1 (stereo not drawn) | 577
44 | CN(Cc1cccn1C)C(=O)NC1CCCC1 | 775
45 | O=C(Cn1cccc1-c1nnc(-c2ccccc2)o1)NCCc1ccccc1 | 950
46 | CCN(CC)S(=O)(=O)N1CCC(C(=O)NCCc2ccc(OC)c(OC)c2)CC1 | 751
47 | COc1ccc(N2CCN(c3cc(SCC(=O)NCc4ccc(Cl)cc4)ncn3)CC2)cc1 | 908
48 | Cc1nnc(NC(=O)CSc2nnc(-c3ccc(Cl)cc3)o2)s1 | 772
49 | CCc1ccc(-c2ccc(-n3nc(C)c(S(=O)(=O)N4CCC(C)CC4)c3C)nn2)cc1 | 1350
50 | COc1cccc(NC(=O)c2c(O)c3cccnc3n(-c3ccccc3)c2=O)c1 | 1220
51 | O=C(Cn1nc2c(c1NC(=O)c1c(F)cccc1Cl)CSC2)NCC1CCCO1 (stereo not drawn) | 671
52 | CCN(CC)C(=O)c1ccc2c(c1)N(CC(=O)NC1CCCC1)C(=O)C1CCCCN21 (stereo not drawn) | 789
53 | CC1(C)CS(=O)(=O)N(c2ccc(C(=O)N3CCN(c4ccccn4)CC3)cc2)C1=O | 608
54 | Cc1cccc(-n2c(N)cc(=O)nc2SCC(=O)Nc2nc(-c3ccccc3)cs2)c1 | 738
55 | CC1=NS(=O)(=O)N(Cc2ccccc2)C=C1C(=O)OCc1ccccc1 | 1090
56 | CC(C)(C[C@@](O)(Cc1cc2ccncc2[nH]1)C(F)(F)F)c1cc(F)ccc1O | 790
57 | CC(=O)Nc1cccc(C2OC(c3cc(Br)ccc3OC(C)=O)=NN2C(C)=O)c1 (stereo not drawn) | 828
58 | Cc1ccc(-c2noc(C3CC3)n2)cc1S(=O)(=O)N1CCC(C(=O)N2CCOCC2)CC1 | 697
59 | CC(C)Nc1nc(-c2ccc([N+](=O)[O-])cc2)nc2ccccc12 | 751
60 | Cc1cc(C)cc(-n2ccn3c(CCCC(=O)N4CCN(c5ccccn5)CC4)nnc3c2=O)c1 | 616
61 | COc1ccc(NC2=C(c3ccccc3)C(=O)N(Cc3ccccc3)C2=O)cc1 | 1140

Row | SMILES | RP-LC retention time [s]
62 | Cc1ccc(Cl)cc1N1CCN(C(=O)c2ccc3c(c2)NC(=O)C2CCCCN32)CC1 (stereo not drawn) | 1080
63 | CC(C)Cn1cc(S(=O)(=O)Nc2ccc(F)cc2F)c2cccnc21 | 944
64 | Cc1ccc(Nc2c(-c3nc(C)no3)cnc3nc(C)ccc23)cc1 | 750
65 | COC(=O)CNC(=O)N1CCCC1c1ccc(OC)cc1 (stereo not drawn) | 678
66 | CCc1csc(-c2ccc(N3CCN(C(=O)c4ccc(C#N)cc4F)CC3)nc2)n1 | 929
67 | CC(C)CN1CCN(C(=O)c2nc(-c3ccnc(N4CCCCC4)c3)no2)CC1 | 588
68 | Cc1ccc(S(=O)(=O)Nc2ccc3c(c2)nc(-c2ccc(C(=O)NC(C)C)cc2)n3C)cc1 | 695
69 | Cn1c(=O)c(NCCc2c[nH]c3ccccc23)nc2ccncc21 | 619
70 | O=S(=O)(c1ccc(-c2cnc(C3CCC3)o2)s1)N1CCN(c2ncccn2)CC1 | 1040
71 | COC(=O)c1cc(OC)c(OC)cc1NC(=O)NCCc1c[nH]c2ccccc12 | 876
72 | Cc1cc(NC(=O)c2[nH]c(C)c(S(=O)(=O)N3CCCCC3)c2C)ccc1Br | 1110
73 | CC(=O)c1cccc(NC(=O)c2csc3c2CCCC3)c1 | 996
74 | COc1cccc(-c2noc(Cn3ccn(Cc4ccc(Cl)cc4)c(=O)c3=O)n2)c1 | 895
75 | CC(=O)N1CCc2cc(CNS(=O)(=O)c3ccc(Br)cc3)ccc21 | 830
76 | Cc1cc(-n2cc(C(=O)N3CCC(NC(=O)Cc4cccs4)CC3)nn2)ccc1F | 746
77 | CN(C)S(=O)(=O)Nc1cccc(Br)c1 | 898
78 | CCCc1noc(-c2ccnc(-n3ncc(C(=O)Nc4ccc(F)cc4)c3C)c2)n1 | 1120
79 | Cc1cc(C)c2c(N3CCCCC3)nc(C(=O)NCC3CCCO3)nc2n1 (stereo not drawn) | 621
80 | CCOc1ccc(Nc2nc(C(=O)Nc3ccc(S(N)(=O)=O)cc3)cs2)cc1 | 761
81 | CCOc1ccc(CNC(=O)C2CCN(S(=O)(=O)c3ccc4c(c3)CCCC(=O)N4)CC2)cc1 | 756
82 | Cc1ccc(-c2cc(OCC(N)=O)c3cc(NC(=O)COc4ccccc4)ccc3n2)cc1 | 700
83 | O=C(Cn1nc2n(c1=O)CCCC2)Nc1cccc(Cl)c1 | 662
84 | Cn1c(=O)c(=O)n(C)c2cc(N3CCCC3)c(NC(=O)C3CC3)cc21 | 614
85 | Cn1nc(-c2ccsc2)nc1C1CN(S(=O)(=O)c2cccnc2)C1 | 712
86 | COc1ccc2[nH]c3c(c2c1)CCNC31CCN(S(=O)(=O)c2c(C)nn(C)c2C)CC1 | 641
87 | N#CC1=CN(c2cccc(Br)c2)c2ccccc2S1(=O)=O | 939
88 | CCC(Oc1ccccc1)C(=O)Nc1nc(-c2ccc(Cl)cc2)cs1 (stereo not drawn) | 1240
